Assay results from publication PMC4753485, “Selective potentiation of 2-APB-induced activation of TRPV1–3 channels by acid” (Scientific Reports, 2016).
Several values for one entry are separate records, joined by “and”; a condition that tells them apart may be missing. Identical values can stand only once. Like-named read-outs stand apart in the source and are kept apart here. One block for each compound: values may come before it.

Tests used:
mouse TRPV3 = target: T1, mouse TRPV3 (Mus musculus, UniProt Q8K424); assay: Whole-cell recordings of TRPV3 currents in HEK293 cells; format: cell-based; details: for EC50: EC50 of 2-APB-evoked TRPV3 whole-cell current, Vh −60 mV; for EC50 / Hill coefficient nH of 2-APB concentration-response: after full sensitization
T1 construct: Full-length cDNA for murine TRPV3 was isolated and subcloned into pIRES2-EGFP; expressed in transfected cells; host or cells: HEK293 (transient)
T1 sequence (Q8K424 1-791): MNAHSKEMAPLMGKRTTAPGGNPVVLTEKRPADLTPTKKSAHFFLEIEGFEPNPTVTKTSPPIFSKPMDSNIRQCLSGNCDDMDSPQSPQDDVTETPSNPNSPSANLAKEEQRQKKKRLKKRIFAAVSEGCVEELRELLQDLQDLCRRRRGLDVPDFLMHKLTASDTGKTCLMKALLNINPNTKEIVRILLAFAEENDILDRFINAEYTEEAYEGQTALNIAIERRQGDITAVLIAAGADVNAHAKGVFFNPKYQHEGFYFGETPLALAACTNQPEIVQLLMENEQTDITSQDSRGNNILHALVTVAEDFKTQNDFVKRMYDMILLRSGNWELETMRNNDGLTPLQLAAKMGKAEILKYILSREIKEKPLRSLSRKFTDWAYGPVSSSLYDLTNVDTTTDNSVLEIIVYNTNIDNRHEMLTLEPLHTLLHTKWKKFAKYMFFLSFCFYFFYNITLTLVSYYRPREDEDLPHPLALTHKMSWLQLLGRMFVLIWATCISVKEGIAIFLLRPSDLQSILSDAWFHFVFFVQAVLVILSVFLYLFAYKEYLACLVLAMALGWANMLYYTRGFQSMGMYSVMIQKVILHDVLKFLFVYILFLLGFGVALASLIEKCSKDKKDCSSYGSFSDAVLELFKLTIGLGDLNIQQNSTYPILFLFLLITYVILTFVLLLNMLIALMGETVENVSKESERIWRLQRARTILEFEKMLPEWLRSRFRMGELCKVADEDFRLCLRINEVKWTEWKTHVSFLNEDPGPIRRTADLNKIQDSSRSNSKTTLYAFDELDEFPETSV
Procedure: The resulting mutations were verified by DNA sequencing.
Whole-cell recordings were performed the following day. […] Camphor was purchased from Acros (New Jersey, USA).

TRPM8 = TRPM8 (Rattus norvegicus, UniProt Q8R455); assay: cell-based; details: for IC50: IC50 for inhibition of menthol-evoked TRPM8 current, 100 μM menthol
Excerpt: (§1) Full-length cDNA for murine TRPV3 was isolated and subcloned into pIRES2-EGFP, as previously described. The wild-type rat TRPV1, TRPV2 and TRPM8 cDNAs were generously provided by Dr. Feng Qin (State University of New York at Buffalo, Buffalo). All mutations were made using either QuikChange® XL site-directed mutagenesis kit (Agilent Technologies) or the overlap-extension polymerase chain reaction (PCR) method as previously described. The resulting mutations were verified by DNA sequencing. HEK293 cells were grown in DMEM containing 4.5 mg/ml glucose, 10% heat-inactivated fetal bovine serum, 50 units/ml penicillin, and 50 μg/ml streptomycin. For electrophysiological experiments, cells were seeded in 35 mm culture dishes and transfected with the desired DNA constructs using Lipofectamine 2000 (Invitrogen) following the protocol provided by the manufacturer. Stable TRPV3 expressing cells were selected in the G418-containing medium. For intracellular Ca^2+ measurements, cells were transfected with the desired DNA constructs in the wells of 96-well plates without pre-seeding using Lipofectamine 2000 (Invitrogen) as described.
(§2) Transfected HEK293 cells were reseeded on 12 mm round glass coverslips (Warner Instruments) one day after transfection. Whole-cell recordings were performed the following day. Recording pipettes were pulled from borosilicate glass capillaries (Sutter or World Precision Instruments) to 2–4 MΩ when filled with internal solution containing (in mM) 140 CsCl, 2.0 MgCl2, 5 EGTA, 10 HEPES, pH 7.4. Bathing solution contained (in mM) 140 NaCl, 5 KCl, 5 EGTA, 1 MgCl2, 10 glucose and 10 HEPES, pH 7.4. Isolated cells were voltage clamped in the whole-cell mode using an EPC10 amplifier (HEKA Instruments Inc). Voltage commands were made from the Patchmaster program, and the currents were recorded at 5 kHz. […] Whole-cell recordings were typically sampled at 5 kHz and filtered at 1 kHz. The compensation of pipette series resistance and capacitance were taken by using the built-in circuitry of the amplifier (>80%) to reduce voltage errors. Exchange of external solutions was performed using a gravity-driven local perfusion system (Automate Scientific). Channel activators were diluted into the recording solution at the desired final concentrations and applied to the cell through perfusion. As determined by the conductance tests, the solution around a patch under study was fully controlled by the application of a solution with a flow rate of 100 μl/min or greater. […] The acidic solutions contained (in mM): 140 NaCl, 5 KCl, 5 EGTA, 1 MgCl2, 10 glucose, and 10 MES, with pH adjusted to desired values by NaOH. For inside-out recordings, both the pipette solution and bath solution contained (in mM) 140 NaCl, 5 KCl, 5 EGTA, 1 MgCl2, 10 HEPES, pH 7.4. Excised patches were held constantly at desired potentials while compounds were repetitively applied and washed from the bath. For recordings from HEK293 cells under acidic pH conditions, the solution also contained 50 μM amiloride as an inhibitor of the native ASIC channels. Camphor was purchased from Acros (New Jersey, USA). Diphenyl borate (DPB) was synthesized by Beijing Realchem Technology Company (Beijing, China). Other chemicals were purchased from Sigma (Sigma, St. Louis, MO). Water-insoluble reagents were dissolved in either 100% ethanol or DMSO to make stock solutions and were diluted in the bathing solution at appropriate concentrations before experiments. […] All experiments except those for heat activation were performed at room temperature (22–24 °C).

TRPV2 = TRPV2 (Rattus norvegicus, UniProt Q9WUD2); assay: cell-based; details: for EC50: EC50 of 2-APB-evoked TRPV2 whole-cell current
Excerpt: as §1, §2

TRPV3 [1] = target: T2, TRPV3 (Mus musculus, UniProt Q8K424); assay: cell-based
Excerpt: as §1

TRPV1 = target: T3, TRPV1 (Rattus norvegicus, UniProt O35433); assay: Inside-out patch recordings from TRPV1-expressing HEK293 cells; format: cell-based; details: +60 mV
T3 construct: expressed in transfected cells; host or cells: HEK293
Excerpt: as §1, with “For intracellular Ca^2+ measurements, cells were transfected with the desired DNA constructs in the wells of 96-well plates without pre-seeding using Lipofectamine 2000 (Invitrogen) as described.” left out
(§3) Transfected HEK293 cells were reseeded on 12 mm round glass coverslips (Warner Instruments) one day after transfection. […] Voltage commands were made from the Patchmaster program, and the currents were recorded at 5 kHz. […] As determined by the conductance tests, the solution around a patch under study was fully controlled by the application of a solution with a flow rate of 100 μl/min or greater. […]

TRPV1(E600Q/T633A) = target: T4, TRPV1(E600Q/T633A) (Rattus norvegicus, UniProt O35433, E600Q/T633A); assay: Whole-cell recordings of TRPV1(E600Q/T633A) in HEK293 cells; format: cell-based; details: −60 mV
T4 construct: expressed in transfected cells; host or cells: HEK293
Excerpt: as §1, with “For intracellular Ca^2+ measurements, cells were transfected with the desired DNA constructs in the wells of 96-well plates without pre-seeding using Lipofectamine 2000 (Invitrogen) as described.” left out
as §3

TRPV3 [2] = target: T2, TRPV3; details: 32 °C
Excerpt: as §1

[3] = system: TRPV3 linker 2–3 mutants (L508R, D512N, S518V, A520S); details: 100 μM 2-APB; whole-cell and inside-out; after sensitization with 500 μM 2-APB
Excerpt: as §1, with “For intracellular Ca^2+ measurements, cells were transfected with the desired DNA constructs in the wells of 96-well plates without pre-seeding using Lipofectamine 2000 (Invitrogen) as described.” left out
as §3

[4] = no reference given; cited from earlier work
[5] = 1H-NMR and mass spectrometry of compounds in solution; details: 1H-NMR in PBS and mass spectrometry
Procedure: The solution NMR samples were prepared at the final concentration of 1 mM for the test compound in PBS at three different pH values (5.5, 7.4 and 8.5). […] One-dimensional (1D) ^1H NMR spectra were collected with 2-s delays using a standard Varian 1D watergate pulse sequence. Two-dimensional (2D) ^1H NMR TOCSY (mixing time 100 ms) and NOESY (mixing time 500 ms) spectra were collected using standard Varian TOCSY and NOESY pulse sequences. All spectra were processed using NMRPipe[45] with 1D ^1H spectra analyzed using ACD/NMR Processor (www.acdlabs.com) while 2D ^1H spectra analyzed using SPARKY[46]. In TOCSY, cross-peaks were potentially generated between all resonances within a spin system, while in NOESY, the integrated intensity of a given cross-peak was interpreted in terms of the distance between the two hydrogen atoms that gave rise to the peak.
The molecular mass was then measured by using positive and negative ion electrospray ionization mass spectrometry (ESI-MS, Thermo Fisher Scientific Inc., Waltham, MA).

TRPV2, sequence (Q9WUD2 whole entry): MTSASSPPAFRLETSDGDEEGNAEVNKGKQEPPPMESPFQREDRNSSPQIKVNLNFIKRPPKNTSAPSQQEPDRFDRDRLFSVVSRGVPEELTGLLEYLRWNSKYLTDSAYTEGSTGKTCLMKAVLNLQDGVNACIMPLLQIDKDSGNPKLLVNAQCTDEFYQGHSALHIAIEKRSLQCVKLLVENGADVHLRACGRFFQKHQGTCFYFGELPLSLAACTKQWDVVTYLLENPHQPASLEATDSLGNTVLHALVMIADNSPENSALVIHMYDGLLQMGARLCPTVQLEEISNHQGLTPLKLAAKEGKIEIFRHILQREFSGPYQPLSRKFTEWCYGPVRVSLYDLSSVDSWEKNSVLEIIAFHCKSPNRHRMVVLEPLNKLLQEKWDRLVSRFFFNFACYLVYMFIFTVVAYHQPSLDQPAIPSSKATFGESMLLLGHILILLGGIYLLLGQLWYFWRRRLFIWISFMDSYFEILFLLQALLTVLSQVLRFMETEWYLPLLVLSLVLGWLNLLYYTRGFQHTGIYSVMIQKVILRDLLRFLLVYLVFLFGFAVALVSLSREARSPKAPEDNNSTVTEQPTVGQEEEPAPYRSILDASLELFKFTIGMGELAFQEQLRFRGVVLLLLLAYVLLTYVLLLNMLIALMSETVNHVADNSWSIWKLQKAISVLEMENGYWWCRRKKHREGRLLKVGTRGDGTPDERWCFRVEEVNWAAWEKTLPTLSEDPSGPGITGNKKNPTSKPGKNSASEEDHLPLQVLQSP
TRPM8, sequence (Q8R455 whole entry): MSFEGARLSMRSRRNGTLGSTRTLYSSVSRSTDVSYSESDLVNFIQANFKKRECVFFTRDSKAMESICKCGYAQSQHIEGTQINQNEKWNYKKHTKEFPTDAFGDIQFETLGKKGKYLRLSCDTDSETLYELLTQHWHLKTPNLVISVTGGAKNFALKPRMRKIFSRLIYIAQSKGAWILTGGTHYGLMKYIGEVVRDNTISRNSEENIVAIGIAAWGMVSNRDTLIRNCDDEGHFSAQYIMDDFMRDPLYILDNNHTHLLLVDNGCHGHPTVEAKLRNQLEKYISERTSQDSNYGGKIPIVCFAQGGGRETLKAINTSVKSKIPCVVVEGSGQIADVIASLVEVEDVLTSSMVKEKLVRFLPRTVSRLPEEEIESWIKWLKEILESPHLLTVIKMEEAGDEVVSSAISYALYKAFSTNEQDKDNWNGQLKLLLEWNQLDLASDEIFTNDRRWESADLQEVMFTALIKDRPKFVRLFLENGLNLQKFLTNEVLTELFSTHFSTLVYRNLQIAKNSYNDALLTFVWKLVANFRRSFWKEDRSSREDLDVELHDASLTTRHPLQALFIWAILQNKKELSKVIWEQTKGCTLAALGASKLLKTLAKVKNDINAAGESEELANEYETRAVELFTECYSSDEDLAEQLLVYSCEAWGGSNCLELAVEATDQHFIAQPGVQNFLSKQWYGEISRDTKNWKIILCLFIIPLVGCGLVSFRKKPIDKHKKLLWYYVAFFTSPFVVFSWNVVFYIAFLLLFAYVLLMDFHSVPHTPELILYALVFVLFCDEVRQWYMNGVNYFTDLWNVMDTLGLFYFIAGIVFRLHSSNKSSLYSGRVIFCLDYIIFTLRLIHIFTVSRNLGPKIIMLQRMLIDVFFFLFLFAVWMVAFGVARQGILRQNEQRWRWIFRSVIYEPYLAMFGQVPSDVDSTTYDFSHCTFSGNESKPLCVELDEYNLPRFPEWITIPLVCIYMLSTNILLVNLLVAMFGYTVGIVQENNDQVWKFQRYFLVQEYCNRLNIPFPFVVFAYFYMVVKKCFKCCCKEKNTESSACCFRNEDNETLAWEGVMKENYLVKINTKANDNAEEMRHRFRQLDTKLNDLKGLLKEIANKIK
T3 sequence (O35433 whole entry): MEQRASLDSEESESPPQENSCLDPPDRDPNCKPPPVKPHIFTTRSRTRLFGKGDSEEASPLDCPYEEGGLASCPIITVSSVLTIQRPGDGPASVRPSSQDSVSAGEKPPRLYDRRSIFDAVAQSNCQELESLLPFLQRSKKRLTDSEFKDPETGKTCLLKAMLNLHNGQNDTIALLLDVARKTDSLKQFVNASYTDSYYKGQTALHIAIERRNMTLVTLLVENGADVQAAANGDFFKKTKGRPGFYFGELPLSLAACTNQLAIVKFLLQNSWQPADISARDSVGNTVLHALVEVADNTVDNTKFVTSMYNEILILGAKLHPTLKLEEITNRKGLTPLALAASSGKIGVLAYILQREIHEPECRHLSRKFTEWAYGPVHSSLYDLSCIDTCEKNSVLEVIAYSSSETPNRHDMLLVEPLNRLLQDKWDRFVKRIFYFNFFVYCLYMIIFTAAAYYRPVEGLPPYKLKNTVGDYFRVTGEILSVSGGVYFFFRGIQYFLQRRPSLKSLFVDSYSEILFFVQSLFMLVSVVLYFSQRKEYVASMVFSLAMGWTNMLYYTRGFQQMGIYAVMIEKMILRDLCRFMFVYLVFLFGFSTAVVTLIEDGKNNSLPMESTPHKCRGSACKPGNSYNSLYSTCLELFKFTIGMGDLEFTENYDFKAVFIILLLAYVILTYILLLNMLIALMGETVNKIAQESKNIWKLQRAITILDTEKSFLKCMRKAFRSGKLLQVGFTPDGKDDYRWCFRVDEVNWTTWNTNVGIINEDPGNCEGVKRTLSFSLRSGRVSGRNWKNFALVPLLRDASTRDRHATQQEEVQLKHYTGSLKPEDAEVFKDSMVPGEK
T4 sequence (O35433 whole entry E600Q/T633A): as the sequence (O35433 whole entry) above, with E600Q, T633A counted along it

inhibition at 10 µM (TRPM8; HEK293, pH 5.5, read-out: Inhibition of menthol-evoked TRPM8 current): 84 ± 2%
inhibition at 10 µM (TRPM8; HEK293, pH 6, read-out: Inhibition of menthol-evoked TRPM8 current): 69 ± 3%
inhibition at 10 µM (TRPM8; HEK293, pH 7.4, read-out: Inhibition of menthol-evoked TRPM8 current): 24 ± 2%
IC50 (TRPM8; pH 5.5): 3.1 µM and 3.07 µM
IC50 (TRPM8; pH 7.4): 20.5 µM
Hill coefficient nH of inhibition curve (TRPM8; pH 5.5): 1.5 ± 0.1 and 1.49 ± 0.08
Hill coefficient nH of inhibition curve (TRPM8; pH 7.4): 1.4 ± 0.3 and 1.41 ± 0.28
EC50 (TRPV2; pH 5.5): 112 ± 1.2 µM
EC50 (TRPV2; pH 7.4): 522 ± 10.2 µM
Hill coefficient nH of 2-APB concentration-response (TRPV2; pH 5.5): 5.2 ± 0.3 and 5.26 ± 0.35
Hill coefficient nH of 2-APB concentration-response (TRPV2; pH 7.4): 4.3 ± 0.3 and 4.34 ± 0.35
EC50 (TRPV3 [1]): 8.8 ± 1.5 µM
Drop of cytosolic pH (TRPV3 [1]; 300 μM 2-APB): ~ 0.35 pH unit
Increase of peak current at pH 5.5 over pH 7.4, cytoplasmic side (TRPV1; 100 μM 2-APB): more than 2 fold
Effect of lowering extracellular pH to 5.5 on response (TRPV1(E600Q/T633A); 10 μM 2-APB): strongly enhanced
Effect of reducing extracellular pH to 5.5 on Ca2+ response (TRPV3 [2]; 166 μM 2-APB): not further increased
Effect of reducing extracellular pH to 5.5 on Fluo-4 fluorescence intensity (TRPV3 [2]; low to moderate 2-APB concentrations (6–55 μM)): markedly enhanced
Stability in solution [5]: easily hydrolyzed to DPB
SMILES: NCCOB(c1ccccc1)c1ccccc1 [2-APB, 2-aminoethoxydiphenyl borate]
Half-maximal pH of 2-APB-activated TRPV3 currents (mouse TRPV3; 10 μM 2-APB, pH 8.5 to 4.5, after sensitization with 100 μM 2-APB): 6.70 ± 0.02
EC50 (mouse TRPV3; pH 5.5): 3.3 µM and 3.34 µM
EC50 (mouse TRPV3; pH 7.4): 36.2 ± 2.1 µM
Hill coefficient nH of 2-APB concentration-response (mouse TRPV3; pH 5.5): 2.0 ± 0.3 and 1.98 ± 0.34
Hill coefficient nH of 2-APB concentration-response (mouse TRPV3; pH 7.4): 1.8 ± 0.2 and 1.76 ± 0.17
Effect of low pH (5.5) on response to 2-APB in mutant channels [3]: greatly increased
pKa of the amino group [4]: 9.6

Stability in solution [5]: easily hydrolyzed to DPB
SMILES: c1ccc(B(OB(c2ccccc2)c2ccccc2)c2ccccc2)cc1 [DPBA, diphenylboronic anhydride]
Increase of evoked current by acid (pH 5.5) (mouse TRPV3; 5 μM DPBA, after sensitization with 30 μM DPBA): ~ 7 fold

SMILES: OB(c1ccccc1)c1ccccc1 [DPB]
Increase of evoked current by acidic pH (5.5 versus 7.4) (mouse TRPV3; 10 μM DPB, after sensitization with 100 μM 2-APB): about 5 fold

SMILES: OC(c1ccccc1)c1ccccc1 [DPM, diphenyl methanol]
TRPV3 current elicited (mouse TRPV3; pH 7.4 (30 or 500 μM) or pH 5.5 (30 μM only), after sensitization with 100 μM 2-APB): no detectable current

SMILES: CC12CCC(CC1=O)C2(C)C (stereo not drawn) [camphor]
Effect of acid (pH 5.5) on evoked TRPV3 current (mouse TRPV3; 3 mM camphor, after sensitization with 100 μM 2-APB): slowed down the current development

Effect of intracellular acid (pH 5.5) on evoked current (TRPV1; 0.1 μM capsaicin): did not enhance
Decrease of elicited current by lowering extracellular pH to 5.5 (TRPV1(E600Q/T633A); 0.01 μM capsaicin): nearly one-half
SMILES: COc1cc(CNC(=O)CCCC/C=C/C(C)C)ccc1O [capsaicin]

SMILES: CC1CCC(C(C)C)C(O)C1 (stereo not drawn) [menthol]
inhibition at 1000 µM (mouse TRPV3; HEK293, pH 5.5, read-out: Inhibition of evoked TRPV3 current by acid (pH 5.5)): ~48%
